Data set [1] deals with S. mutans. It counts as cell-based, Streptococcus mutans.
Data set [2] relates to P. aeruginosa. Format: cell-based, Pseudomonas aeruginosa. As to the method:
(§1) Typically, the in vitro antimicrobial activity of antimicrobial agents is tested using standard NCCLS bacterial inhibition assays, or MIC tests (see, National Committee on Clinical Laboratory Standards “Performance Standards for Antimicrobial Susceptibility Testing,” NCCLS Document M100-S5 Vol. 14, No. 16, December 1994; “Methods for dilution antimicrobial susceptibility test for bacteria that grow aerobically-Third Edition,” Approved Standard M7-A3, National Committee for Clinical Standards, Villanova, Pa.).
(§2) Briefly, ˜1×10^5 cfu/mL bacteria were diluted in TH (S. mutans), or Mueller-Hinton (MH) broth (all other organisms) and distributed to 96-well plates. Serially-diluted (2-fold) peptides were then added and the plates incubated at 37° C. for 18-24 h. […] All experiments were conducted 10 times.

Data set [3] concerns S. epidermidis. Format: cell-based, Staphylococcus epidermidis. Summed up: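 Organisms were diluted to ˜1×10^5 cfu/mL in Mueller-Hinton broth and dispensed into plates. Peptides were added as 2-fold serial dilutions. Plates were then held at 37° C. for 18-24 h.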
In data set [4] the test system is E. coli. Format: cell-based, Escherichia coli. On the procedure:
as §1, §2

Data set [5] has as its system Klebsiella pneumoniae KAY 2026. Format: cell-based. On the procedure:
(§3) Aerobic Gram-negative organisms were grown in Lauri-Bertaini (LB) broth and Gram-positive bacteria in Brain-heart infusion (BHI) broth. Streptococcus mutans JM11 (spectinomycin resistant, UA140 background) was grown in Todd-Hewitt (TH) broth under anaerobic conditions (80% N2, 15% CO2, 5% H2) at 37° C. Merritt et al. (2005) J Microbiol Meth., 61: 161-170. All bacteria were grown overnight to an OD600 of 0.8-1.0 prior to appropriate dilution and antimicrobial testing.
as §2

Data set [6] concerns Staphylococcus aureus Newmann. It counts as cell-based. As to the method:
as §3, §2

The test system of data set [7] is S. mutans. The data set is described as follows: Post-antibiotic effect assay (growth retardation after 10 min exposure). It counts as cell-based, Streptococcus mutans. The settings on record: S. mutans monoculture, peptide 10 min, then fresh medium. As to the method:
(§4) The activity and selectivity of MH-STAMPs after a 10 min incubation was determined by growth retardation experiments against targeted and untargeted bacteria in monocultures, as described previously (Id.). Cells from overnight cultures were diluted to ˜5×10^6 cfu/mL in MH (or TH with 1% sucrose for S. mutans), normalized by OD600 0.05-0.1 and seeded to 96-well plates. Cultures were then grown under the appropriate conditions for 2 h (3 h for S. mutans) prior to the addition of peptides for 10 min. Plates were then centrifuged at 3000×g for 5 min, the supernatants discarded, fresh medium returned (MH or TH without sucrose for S. mutans), and incubation resumed. Bacterial growth after treatment was then monitored over time by OD600.

In data set [8] the test system is P. aeruginosa. The description is as above. It counts as cell-based, Pseudomonas aeruginosa. The note with it: P. aeruginosa monoculture, peptide 10 min, then fresh medium. As to the method: as §4
The test system of data set [9] is S. epidermidis. The data set is described as above. It counts as cell-based, Staphylococcus epidermidis. The settings on record: S. epidermidis monoculture, peptide 10 min, then fresh medium. As to the method:
as §4

The subject of data set [10] is S. aureus. Described as above. Format: cell-based, Staphylococcus aureus. The settings on record: S. aureus monoculture, peptide 10 min, then fresh medium. As to the method:
as §4

In data set [11] the test system is E. coli. The description is as above. It counts as cell-based, Escherichia coli. The settings on record: E. coli monoculture, peptide 10 min, then fresh medium. As to the method: as §4
The test system of data set [12] is Mixed planktonic populations of P. aeruginosa, E. coli, S. epidermidis, and S. mutans. The experiment in a line: Microbial population shift assay. Format: cell-based. The settings on record: 10 μM peptide, 24 h. As to the method:
Peptide (10 μM) or mock-treatment (1× PBS) was then added and samples were incubated at 37° C. for 24 h under anaerobic conditions (80% N2, 15% CO2, 5% H2). […] Plates were then incubated 37° C. under aerobic conditions (TH plates were incubated anaerobically) and colonies counted after 24 h to determine survivors. […] Gram stains and direct microscopic observation (from select isolated colonies) were undertaken to confirm species identity (data not shown). The detection limit of the assay was 200 cfu/mL.

Data set [13] relates to panel of bacteria. The data set is described as follows: General antimicrobial activity by MIC against a panel of bacteria. It counts as cell-based. The note with it: panel of bacteria (Table 19). As to the method: as §2
Data set [14] deals with S. mutans UA140 biofilms. The experiment in a line: Photodynamic antimicrobial assay against single-species biofilms. It counts as cell-based, Streptococcus mutans. The note with it: 5 μM, dark controls. On the procedure: To evaluate C16-RB against monoculture biofilms, S. mutans UA140 was grown overnight in TH prior to inoculation for biofilm formation. For biofilms, 1:5000 dilution of overnight culture was made into TH with 1% sucrose in 2 mL centrifuge tubes (200 μL volume) and grown 24 h under anaerobic conditions. After incubation, biofilms were treated for 5 min with 5 or 25 μM C16-RB or 5 μM RB in 1× PBS, or PBS alone, followed by removal of supernatant and exposure to 5 min blue light (emission 400-550 nm, power 400 mW/cm^2) from an Astralis 7 (Ivoclar Vivodent, Austria) handheld LED commonly used as a dental curing light. The light source was suspended 4 cm from the tube bottom (even with the mouth of the tube). A duplicate set of samples were left covered to serve as dark controls. After treatment, biofilms were mechanically disrupted and plated to determine cfu/mL.

Data set [15] deals with mixed biofilms of S. mutans JM11 plus S. oralis, S. gordonii, S. mitis, S. sanguinis, and S. salivarius. The data set is described as follows: Photodynamic antimicrobial assay against multispecies biofilms. It counts as cell-based. The note with it: blue light. As to the method:
To gauge C16-RB selectivity for S. mutans, similar assays were conducted against multispecies biofilms. Mixed biofilms were seeded by diluting (1:5000) a mixture of equal parts S. oralis, S. gordonii, S. mitis, S. sanguinis, S. salivarius, and S. mutans JM11 (made from overnight cultures) into TH with 1% sucrose, 1% glucose, and 1% mannose. Biofilms were incubated and treated as described above with the addition of vitamin C or potassium gluconate. After the addition of agent and 5 min incubation, biofilms were washed 1× with 1× PBS prior to light exposure. After PDT and biofilm disruption, survivors were plated on TH, and TH supplemented with 800 μg/mL spectinomycin, which allowed for quantitation of surviving total oral streptococci and surviving S. mutans, respectively.

For data set [16], the system named is BHK-21 (ATCC CRL-10) fibroblasts. The experiment in a line: Cytotoxicity, Promega CellTiterGlo assay. It counts as cell-based, hamster. As to the method:
Streptococcus oralis ATCC 10557, Streptococcus gordonii (Challis), Streptococcus sanguinis (NY101), Streptococcus mitis ATCC 903, Streptococcus salivarius ATCC 13419 and S. mutans wild-type UA140 and JM11 (spectinomycin-resistant) strains were grown in Todd-Hewitt (TH) broth 37° C. in an anaerobic atmosphere of 80% N2, 10% CO2, and 10% H2. BHK-21 (ATCC CRL-10) fibroblasts were propagated in DMEM with 10% FBS, 1 mM sodium pyruvate, 100 units/mL penicillin G, and 100 μg/mL streptomycin at 37° C. with 5% CO2. Cells were detached with 0.25% trypsin and subcultured as recommended by the supplier.
The effect of RB and C16-RB on […] fibroblasts was ascertained by utilizing the Promega CellTiterGlo assay, as described by the manufacturer. Briefly, fibroblasts were grown to confluence, detached, and seeded to ˜5,000 cells per well in a 96-well opaque walled, clear bottom 96-well plate (Nunc International). For long-term dark toxicity, cells were allowed to attach to for 18 h before the culture medium was replaced with medium plus serially-diluted RB or C16-RB (200 μM to 390 nM) or medium alone. After 18-24 h, equal volume Cell Titer Glo reagent was added to each well and mixed. Luciferace activity was then quantified to measure cell viability (Varian Fluorometer in Biolumenescence mode). To measure cytotoxicity after RB or C16-RB light exposure, cells were seeded at ˜10,000 cells per well and allowed to attach for 4 h. Cell growth medium was then replaced with RB or C16-RB containing medium, prior to exposure (a single well at a time) with blue light (400 mW/cm^2) suspended ˜3 cm from the well bottom. After exposure, cultures were disrupted with Cell Titer Glo and luciferase activity quantitated as above.
A general note: Cellular ATP, detected with luciferase, serves as a proxy for viable cell number.

Setting [17] is: S. epidermidis in mixed culture.

Converted amounts (≈) assume the structure as drawn. Bridge positions count the residues as written; N and C are the ends. Square brackets hold non-standard residues; d marks the D form. Peptide text beside a SMILES is read from it. I, II: the chains in the order shown. Aoc = NCCCCCCCC(=O)O Bounds are passed on as bounds.

Take `CC[C@H](C)[C@H](NC(=O)[C@@H](N)Cc1ccccc1)C(=O)N[C@@H](CCCNC(=N)N)C(=O)N[C@@H](CCCCN)C(=O)N[C@@H](Cc1ccccc1)C(=O)N[C@@H](CC(C)C)C(=O)N[C@@H](CCCCN)C(=O)N[C@@H](CCCCN)C(=O)N[C@@H](Cc1c[nH]c2ccccc12)C(=O)N[C@@H](CC(C)C)C(=O)N[C@@H](CC(C)C)C(N)=O` [BD2.20] (H-FIRKFLKKWLL-NH2; N-terminus assumed): the MIC (in general, the smallest concentration in the dilution series that meets the test's criterion for growth inhibition) in [1] came to 2.86 ± 0.60 µM (≈ 4.26 µg/mL); in data set [2], 14.4 ± 4.40 µM (≈ 21.5 µg/mL); in [3], 5.11 ± 1.58 µM (≈ 7.62 µg/mL); in data set [4], 5.47 ± 1.41 µM (≈ 8.16 µg/mL); in data set [5], 2.98 ± 0.47 µM (≈ 4.44 µg/mL); in data set [6] it was 5.625 ± 1.29 µM (≈ 8.39 µg/mL). In addition, the “bacterial growth (OD600) after treatment” value in data set [7] is given as “robust antimicrobial activity”; in [8] it was “robust antimicrobial activity”; in data set [9], “inhibited”; in [10], “inhibited”; in data set [11], “inhibited”. The “recoverable (surviving) cfu/mL” value in data set [12] (E. coli in mixed culture), in [12] (P. aeruginosa in mixed culture), in data set [12] (setting [17]) and in data set [12] (S. mutans in mixed culture) was “significant loss of recoverable cfu/mL” throughout. The “general antimicrobial activity by MIC” value in data set [13] is “robust MICs”.

Consider `CC[C@H](C)[C@H](NC(=O)[C@H](Cc1ccccc1)NC(=O)CCCCCCCNC(=O)[C@H](CCCCNC(=O)CNC(=O)CNC(=O)CNC(=O)[C@H](Cc1c[nH]cn1)NC(=O)[C@H](CCCCN)NC(=O)[C@H](CCCNC(=N)N)NC(=O)[C@H](Cc1c[nH]cn1)NC(=O)[C@H](CCCCN)NC(=O)[C@H](CCCNC(=N)N)NC(=O)[C@H](Cc1c[nH]cn1)NC(=O)[C@H](CCCCN)NC(=O)[C@H](CCCNC(=N)N)NC(=O)[C@H](Cc1c[nH]cn1)NC(=O)[C@H](CCCCN)NC(=O)[C@@H](N)CCCCN)NC(=O)CNC(=O)CNC(=O)CNC(=O)[C@H](C)NC(=O)[C@H](CCC(=O)O)NC(=O)[C@H](CC(N)=O)NC(=O)[C@H](C)NC(=O)[C@H](C)NC(=O)[C@H](CC(=O)O)NC(C)=O)C(=O)N[C@@H](CCCNC(=N)N)C(=O)N[C@@H](CCCCN)C(=O)N[C@@H](Cc1ccccc1)C(=O)N[C@@H](CC(C)C)C(=O)N[C@@H](CCCCN)C(=O)N[C@@H](CCCCN)C(=O)N[C@@H](Cc1c[nH]c2ccccc12)C(=O)N[C@@H](CC(C)C)C(=O)N[C@@H](CC(C)C)C(N)=O` [BL(KH)-20] (I: Ac-DAANEAGGGK[Aoc]FIRKFLKKWLL-NH2 / II: H-KKHRKHRKHRKHGGG; amide I:10-II:C), for which the MIC in data set [1] amounted to 6.25 µM (≈ 27.3 µg/mL); in data set [2], 27.5 ± 7.90 µM (≈ 120 µg/mL); in [3] it was 6.25 µM (≈ 27.3 µg/mL); in data set [4], 6.25 µM (≈ 27.3 µg/mL); in data set [5], 6.25 µM (≈ 27.3 µg/mL); in [6], 6.25 µM (≈ 27.3 µg/mL). The “bacterial growth (OD600) after treatment” value in [7] was “not altered”. Also, the “recoverable (surviving) cfu/mL” value in [12] (E. coli in mixed culture) is “unchanged numbers”; in [12] (P. aeruginosa in mixed culture), “not observed”; in data set [12] (setting [17]), “unchanged numbers”; in data set [12] (S. mutans in mixed culture), “higher than input cfu/mL”.

Regarding `O=C1OC2(c3cc(I)c(O)c(I)c3Oc3c2cc(I)c(O)c3I)c2c(Cl)c(Cl)c(Cl)c(Cl)c21` [RB, rose bengal], the “decrease in cfu/mL” value in data set [14] was “appreciable decreases in cfu/mL were not observed”. Besides, in data set [15] (mixed biofilm), the “photodynamic antimicrobial activity, selectivity” value was “strong indiscriminant photodynamic antimicrobial effects”. Besides, the “ratio of surviving S. mutans:non-cariogenic streptococci cfu” value in data set [15] (plus potassium gluconate) is listed as about 1. Further, in data set [16] (BHK cells, blue light), the “light-dependent (photo-associated) toxicity” value was “light-dependent toxicity was observed”. Further, the IC50 (commonly the concentration that inhibits the measured activity by half) in [16] (BHK, 5 min dark) was over 100 µM.

The values above are taken from patent US20110039762A1, “TARGETED ANTIMICROBIAL MOIETIES” (C3 JIAN, INC., priority 2009, published 2011).
